BigSolDB 2.1

Settings: in water

CC(C)(C)[C@H](O)[C@H](Cc1ccc(Cl)cc1)n1cncn1 (racemic)
Settings	solubility (mole fraction)
278.15 K	3.96e-05
280.65 K	5.22e-05
283.15 K	6.56e-05
285.65 K	7.76e-05
288.15 K	8.75e-05
290.65 K	0.000111
293.15 K	0.000146
295.65 K	0.000181
298.15 K	0.000231
300.65 K	0.000295
303.15 K	0.000346
305.65 K	0.000408
308.15 K	0.000458
310.65 K	0.00054
313.15 K	0.000626
